# Experimental data as given in US20250122225A1, “MASP-2 INHIBITORS AND METHODS OF USE” (Omeros Corporation, priority 2023, published 2025).
# Where a name gives a salt, the structure may show the parent alone.
# Tests used:
# Assay type in all cases: biochemical
# [1] = test system: Lectin Pathway Activation in human serum; experiment: Lectin Pathway Activation (LPA) assay in human serum, mannan-coated ELISA plate, C4c detection; conditions: 1% human serum, read-out: LPA Functional Activity (IC50)
# Method: Lectin Pathway Activation (LPA) Assay in Human Serum Treated with Compounds
# A microtiter ELISA plate was coated with mannan (1 mg/ml) from Saccharomyces cerevisiae (Sigma-Aldrich®, M7504) overnight at 4° C. in coating buffer [33.3 mM Na2CO3, 166.67 mM NaHCO3]. The plate was blocked with 5% bovine serum albumin (BSA) (Sigma-Aldrich®, A3294) in 1×PBST [Phosphate Buffered Saline Solution (1.06 mM KH2PO4, 155.2 mM NaCl, 2.97 mM Na2HPO4^−·7H2O, pH 7.4), 0.05% Tween-20] shaking for 2 hours at room temperature. 1% human serum was incubated with serial dilutions of small compounds in 1× LPA+ Buffer [20 mM Hepes, pH 7.4, 140 mM NaCl, 2 mM MgCl2 (6H2O)] and incubated for 5 minutes at room temperature. 40 μL of this mixture was then added to the plate, and the plate was incubated at room temperature for 55 mins. Next, the reaction was stopped by adding 20 μL of EDTA Stop Solution [20 mM Hepes, pH7.4, 140 mM NaCl, 150 mM EDTA] to the plate. The plate was then washed 10× in wash buffer 1×PBST; 40 μL of Rabbit Anti Human C4c Antibody [Dako®, Q0369] diluted 1:20000 in wash buffer was added; and the plate was incubated shaking at room temperature for 30 minutes. The plate was washed [5× times]; 40 μL of Goat Anti-rabbit Antibody-HRP Conjugate [Southern Biotech®, 4050-05] diluted 1:10000 in wash buffer was added; and the plate was incubated shaking at room temperature for 30 minutes. After that, the plate was washed five times; 40 µL/well of Amplex® UltraRed Substrate Solution [1× LPA Buffer, 10 mM Amplex® UltraRed Stock Solution [Thermo Fisher Sci.®, A36006], 3% stabilized hydrogen peroxide [Sigma Aldrich®, 216763] was added; the plate was incubated at room temperature for 16 minutes; the reaction was stopped by adding 8 µL/well of Amplex® UltraRed Stop Solution [Thermo Fisher Sci.®, A33855] in 100% EtOH. Finally, the plate was read for fluorescence at Ex: 550 nm, Em: 580 nm on the i3x Microplate Reader.
# [2] = molecular target: T1, MASP-2 (CCP1-CCP2-SP) (Homo sapiens, UniProt O00187); experiment: Enzymatic assay for MASP-2 inhibitory activity (fluorogenic substrate)
# T1 construct: 15 μL of Enzyme MASP-2 (CCP1-CCP2-SP) in Assay Buffer
# T1 sequence (O00187 445-686 limits assumed): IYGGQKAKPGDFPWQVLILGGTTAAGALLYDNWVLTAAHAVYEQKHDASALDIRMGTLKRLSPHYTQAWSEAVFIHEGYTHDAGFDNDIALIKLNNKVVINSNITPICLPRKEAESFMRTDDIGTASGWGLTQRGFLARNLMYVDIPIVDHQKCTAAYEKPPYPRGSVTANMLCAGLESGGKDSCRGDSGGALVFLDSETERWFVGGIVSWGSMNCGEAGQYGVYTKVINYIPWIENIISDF
# T1 sequence (O00187 287-444 partner limits assumed): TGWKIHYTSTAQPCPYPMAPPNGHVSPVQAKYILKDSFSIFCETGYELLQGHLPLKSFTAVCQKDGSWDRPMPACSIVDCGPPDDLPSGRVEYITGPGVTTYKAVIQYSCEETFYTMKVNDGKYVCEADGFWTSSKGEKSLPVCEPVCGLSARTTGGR
# Procedure, shortened: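 MASP-2 (CCP1-CCP2-SP) cleaved a fluorogenic substrate based on the C2 cleavage site in 20 mM HEPES pH 7.4, 140 mM NaCl, 0.1% Tween 20 at room temperature. After 20 min the reaction was stopped with 0.1 M acetic acid and fluorescence read. % activity was normalized to DMSO-only and no-enzyme controls; IC50 taken as Ki.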
# [3] = molecular target: T2, human α-thrombin (Homo sapiens, UniProt P00734); experiment: Enzymatic assay for thrombin (fluorogenic peptide substrate Boc-VPR-AMC)
# T2 construct: enzyme (human α-thrombin (BioPharm® Lab.)) in assay buffer; purchased BioPharm® Lab
# Procedure, shortened: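 Human α-thrombin was run with the fluorogenic substrate Boc-VPR-AMC in 20 mM Hepes pH 7.4, 140 mM NaCl, 0.1% Tween 20 at room temperature for 20 min, then stopped with 0.1 M acetic acid. % activity was normalized to DMSO and no-enzyme controls. Under linear conditions IC50 equalled Ki, except for tight-binding inhibitors.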
SMILES,IC50 [1] [nM],Ki [2] [nM],Ki [3] [nM]
"C[C@@H](CNc1ncc2n(c1=O)[C@H](C(=O)NCc1cc3c(s1)CNC3)CC2)c1ccccc1 [Compound 276, (S)-N-((5,6-dihydro-4H-thieno[2,3-c]pyrrol-2-yl)methyl)-4-oxo-3-(((R)-2-phenylpropyl)amino)-4,6,7,8-tetrahydropyrrolo[1,2-a]pyrazine-6-carboxamide trifluoroacetate]",< 50,< 500,< 500
"Cc1nc(N)ccc1CNC(=O)[C@@H]1CCc2c(Cl)nc(NCc3cccc(-c4ccccc4)c3)c(=O)n21 [Compound 221, (S)-3-(([1,1′-biphenyl]-3-ylmethyl)amino)-N-((6-amino-2-methylpyridin-3-yl)methyl)-1-chloro-4-oxo-4,6,7,8-tetrahydropyrrolo[1,2-a]pyrazine-6-carboxamide trifluoroacetate]",< 50,< 500,2500 to 10000
"C[C@@H]1C[C@@H](C(=O)NCc2cc3cnccc3[nH]2)n2c1c(Cl)nc(NCc1ccccc1)c2=O [Compound 230, (6S,8R)-N-((1H-pyrrolo[3,2-c]pyridin-2-yl)methyl)-3-(benzylamino)-1-chloro-8-methyl-4-oxo-4,6,7,8-tetrahydropyrrolo[1,2-a]pyrazine-6-carboxamide trifluoroacetate]",50 to 500,< 500,500 to 2500
"Cc1ccc(C(F)(F)F)cc1CNc1ncc2n(c1=O)[C@H](C(=O)N[C@H](C)c1ccc(N)nc1)CC2 [Compound 197, (S)-N-((R)-1-(6-aminopyridin-3-yl)ethyl)-3-((2-methyl-5-(trifluoromethyl)benzyl)amino)-4-oxo-4,6,7,8-tetrahydropyrrolo[1,2-a]pyrazine-6-carboxamide trifluoroacetate]",< 50,< 500,> 25000
"Cc1nc(N)ccc1CNC(=O)[C@@H]1C[C@H](Cc2ccccc2)c2cnc(NC3CCC3)c(=O)n21 [Compound 140, (6S,8S)-N-((6-amino-2-methylpyridin-3-yl)methyl)-8-benzyl-3-(cyclobutylamino)-4-oxo-4,6,7,8-tetrahydropyrrolo[1,2-a]pyrazine-6-carboxamide]",< 50,< 500,< 500

# Other lines, results leading:
IC50 [1] [nM],Ki [2] [nM],Ki [3] [nM],SMILES
< 50,< 500,10000 to 25000,"Cc1cc(F)cc(CNc2ncc3n(c2=O)[C@H](C(=O)NCc2cc4cnc(C)cc4[nH]2)CC3)c1 [Compound 71, (S)-3-((3-fluoro-5-methylbenzyl)amino)-N-((6-methyl-1H-pyrrolo[3,2-c]pyridin-2-yl)methyl)-4-oxo-4,6,7,8-tetrahydropyrrolo[1,2-a]pyrazine-6-carboxamide]"
< 50,< 500,< 500,"COc1cc(C)cc(CNc2ncc3n(c2=O)[C@H](C(=O)NCc2cc4cnccc4[nH]2)CC3)c1 [Compound 48, (S)-N-((1H-pyrrolo[3,2-c]pyridin-2-yl)methyl)-3-((3-methoxy-5-methylbenzyl)amino)-4-oxo-4,6,7,8-tetrahydropyrrolo[1,2-a]pyrazine-6-carboxamide]"
< 50,< 500,< 500,"Cc1cc(F)cc(CNc2ncc3n(c2=O)[C@H](C(=O)NCc2ccc(N)nc2C)CC3)c1 [Compound 69, (S)-N-((6-amino-2-methylpyridin-3-yl)methyl)-3-((3-fluoro-5-methylbenzyl)amino)-4-oxo-4,6,7,8-tetrahydropyrrolo[1,2-a]pyrazine-6-carboxamide]"
50 to 500,< 500,2500 to 10000,"Cc1cc(F)cc(CNc2ncc3n(c2=O)[C@H](C(=O)NCc2ccc(CN)cc2)CC3)c1 [Compound 181, (S)—N-(4-(aminomethyl)benzyl)-3-((3-fluoro-5-methylbenzyl)amino)-4-oxo-4,6,7,8-tetrahydropyrrolo[1,2-a]pyrazine-6-carboxamide trifluoroacetate]"
